Broadly, the EC50 is the concentration needed to bring the measured effect to its halfway point.

The first assay deals with SARS-CoV-2-NLuc in A549-hACE2 cells. Nature of the assay: microbe, parasite or virus in culture. In kind it is cell-based. As to conditions: Severe acute respiratory syndrome coronavirus 2, 48 h, read-out: MPro EC50.
Regarding `O=C1C[C@H](n2c(=O)[nH]c3cc(-c4ccccc4Cl)sc3c2=O)CCCN1` (single isomer, unassigned) [Example 21], the concentration for a half-maximal effect (EC50) was determined as 0.0223 µM.

Still in this assay, the particulars now being: Severe acute respiratory syndrome coronavirus 2, 48 h; read-out: MPro EC50.
Take `COc1cnc(Cl)c(-c2cc3[nH]c(=O)n([C@@H]4CCCNC(=O)C4)c(=O)c3s2)c1` [Example 44, (R)-6-(2-chloro-5-methoxypyridin-3-yl)-3-(2-oxoazepan-4-yl)thieno[3,2-d]pyrimidine-2,4(1H,3H)-dione]: the EC50 was determined as 0.433 µM.

For `COc1ccc(Cl)c(-c2cc3[nH]c(=O)n(C4CCNC(=O)C4)c(=O)c3s2)c1` (stereo not drawn) [Example 7, 6-(2-chloro-5-methoxy-phenyl)-3-(2-oxo-4-piperidyl)-1H-thieno[3,2-d]pyrimidine-2,4-dione], the EC50 worked out at 0.0771 µM.

Consider `Cc1cc(-c2cccc(Cl)c2-c2cc3[nH]c(=O)n(C4CCNC(=O)C4)c(=O)c3s2)cn2ncnc12` (stereo not drawn) [Example 11, 6-(2-chloro-6-(8-methyl-[1,2,4]triazolo[1,5-a]pyridin-6-yl)phenyl)-3-(2-oxopiperidin-4-yl)thieno[3,2-d]pyrimidine-2,4(1H,3H)-dione], for which the EC50 was determined as 1.21 µM.

For the molecule `COc1ccc(Cl)c(-c2cc3c(s2)c(=O)n([C@@H]2CCCNC(=O)C2)c(=O)n3CC#N)c1` [Example 28, (R)-2-(6-(2-chloro-5-methoxyphenyl)-2,4-dioxo-3-(2-oxoazepan-4-yl)-3,4-dihydrothieno[3,2-d]pyrimidin-1(2H)-yl)acetonitrile], the EC50 was determined as 0.00587 µM.

Regarding `O=C1C[C@H](n2c(=O)[nH]c3cc(-c4ccccc4Cl)ccc3c2=O)CCN1` [Example 6, (R)-7-(2-chlorophenyl)-3-(2-oxopiperidin-4-yl)quinazoline-2,4(1H,3H)-dione], the EC50 turned out to be 29.9 µM.

As to `COc1cnc(Cl)c(-c2cc3c(s2)c(=O)n([C@@H]2CCCNC(=O)C2)c(=O)n3CCC#N)c1` [Example 50, (R)-3-(6-(2-chloro-5-methoxypyridin-3-yl)-2,4-dioxo-3-(2-oxoazepan-4-yl)-3,4-dihydrothieno[3,2-d]pyrimidin-1(2H)-yl)propanenitrile], the EC50 was above 1 µM.

Consider `COc1cc(-c2cc3[nH]c(=O)n([C@H]4CCNC(=O)C4)c(=O)c3s2)c(Cl)cc1F` [Example 16, (S)-6-(2-chloro-4-fluoro-5-methoxyphenyl)-3-(2-oxopiperidin-4-yl)thieno[3,2-d]pyrimidine-2,4(1H,3H)-dione], for which the EC50 turned out to be 0.222 µM.

Consider `CNC(=O)CCn1c(=O)n([C@@H]2CCCNC(=O)C2)c(=O)c2sc(-c3cc(OC)c(F)cc3Cl)cc21` [Example 42, (R)-3-(6-(2-chloro-4-fluoro-5-methoxyphenyl)-2,4-dioxo-3-(2-oxoazepan-4-yl)-3,4-dihydrothieno[3,2-d]pyrimidin-1(2H)-yl)-N-methylpropanamide], for which the EC50 was 0.242 µM.

On to `N#CCCn1c(=O)n([C@@H]2CCCNC(=O)C2)c(=O)c2sc(-c3ccccc3C#N)cc21` [Example 52, (R)-2-(1-(2-cyanoethyl)-2,4-dioxo-3-(2-oxoazepan-4-yl)-1,2,3,4-tetrahydrothieno[3,2-d]pyrimidin-6-yl)benzonitrile], for which the EC50 amounted to 0.619 µM.

With `O=C1CC(n2c(=O)[nH]c3cc(-c4ccccc4Cl)ccc3c2=O)CCCN1` (stereo not drawn) [Example 9, 7-(2-chlorophenyl)-3-(2-oxoazepan-4-yl)quinazoline-2,4(1H,3H)-dione], the EC50 was 4.85 µM.

As to `N#CCCn1c(=O)n([C@@H]2CCCNC(=O)C2)c(=O)c2sc(-c3ccccc3Cl)cc21` [Example 51, (R)-3-(6-(2-chlorophenyl)-2,4-dioxo-3-(2-oxoazepan-4-yl)-3,4-dihydrothieno[3,2-d]pyrimidin-1(2H)-yl)propanenitrile], the EC50 stood at 0.098 µM.

On to `COc1cc(-c2cc3[nH]c(=O)n([C@@H]4CC(=O)NC[C@H](C)C4)c(=O)c3s2)c(Cl)cc1F` (single isomer, unassigned) [Example 54], for which the EC50 was determined as 0.0204 µM.

For the molecule `COc1cc(-c2cc3c(s2)c(=O)n([C@@H]2CCCNC(=O)C2)c(=O)n3CCN2CCCC2=O)c(Cl)cc1F` [Example 39, (R)-6-(2-chloro-4-fluoro-5-methoxyphenyl)-3-(2-oxoazepan-4-yl)-1-(2-(2-oxopyrrolidin-1-yl)ethyl)thieno[3,2-d]pyrimidine-2,4(1H,3H)-dione], the concentration for a half-maximal effect (EC50) was 0.148 µM.

Turning to `COc1cc(-c2cc3c(s2)c(=O)n([C@@H]2CCCNC(=O)C2)c(=O)n3CCOC(F)(F)F)c(Cl)cc1F` [Example 38, (R)-6-(2-chloro-4-fluoro-5-methoxyphenyl)-3-(2-oxoazepan-4-yl)-1-(2-(trifluoromethoxy)ethyl)thieno[3,2-d]pyrimidine-2,4(1H,3H)-dione], the EC50 came to 0.208 µM.

On to `COc1cc(-c2cc3c(s2)c(=O)n([C@@H]2CCCNC(=O)C2)c(=O)n3CCNC(C)=O)c(Cl)cc1F` [Example 37, (R)—N-(2-(6-(2-chloro-4-fluoro-5-methoxyphenyl)-2,4-dioxo-3-(2-oxoazepan-4-yl)-3,4-dihydrothieno[3,2-d]pyrimidin-1(2H)-yl)ethyl)acetamide], for which the EC50 stood at 0.17 µM.

`COc1cc(-c2cc3c(s2)c(=O)n([C@@H]2CCCNC(=O)C2)c(=O)n3Cc2ncn(C)n2)c(Cl)cc1F` [Example 41, (R)-6-(2-chloro-4-fluoro-5-methoxyphenyl)-1-((1-methyl-11H-1,2,4-triazol-3-yl)methyl)-3-(2-oxoazepan-4-yl)thieno[3,2-d]pyrimidine-2,4(1H,3H)-dione]: the EC50 was determined as 0.358 µM.

As for `O=C1CC(n2c(=O)[nH]c3cc(-c4ccccc4Cl)sc3c2=O)CCN1` (stereo not drawn) [Example 1, 6-(2-chlorophenyl)-3-(2-oxopiperidin-4-yl)thieno[3,2-d]pyrimidine-2,4(1H,311)-dione], the EC50 was determined as 0.255 µM.

In the case of `COc1cc(-c2cc3c(s2)c(=O)n([C@@H]2CCCNC(=O)C2)c(=O)n3C)c(Cl)cc1F` [Example 32, (R)-6-(2-chloro-4-fluoro-5-methoxyphenyl)-1-methyl-3-(2-oxoazepan-4-yl)thieno[3,2-d]pyrimidine-2,4(1H,3H)-dione], the EC50 was 0.0156 µM.

Take `Cc1noc(C)c1-c1cc2[nH]c(=O)n([C@H]3CCNC(=O)C3)c(=O)c2s1` [Example 19, (S)-6-(3,5-dimethylisoxazol-4-yl)-3-(2-oxopiperidin-4-yl)thieno[3,2-d]pyrimidine-2,4(1H,3H)-dione]: the EC50 stood at 35.8 µM.

As to `COc1cc(-c2cc3c(s2)c(=O)n([C@H]2CCCNC(=O)C2)c(=O)n3CC#N)c(Cl)cc1F` [Example 35, (S)-2-(6-(2-chloro-4-fluoro-5-methoxyphenyl)-2,4-dioxo-3-(2-oxoazepan-4-yl)-3,4-dihydrothieno[3,2-d]pyrimidin-1(2H)-yl)acetonitrile], the EC50 was found to be 0.0846 µM.

As to `COc1ccc(Cl)c(-c2cc3[nH]c(=O)n(C4CCCNC(=O)C4)c(=O)c3s2)c1` (stereo not drawn) [Example 20, 6-(2-chloro-5-methoxyphenyl)-3-(2-oxoazepan-4-yl)thieno[3,2-d]pyrimidine-2,4(1H,3H)-dione], the EC50 was 0.0564 µM.

With `COc1ccc(Cl)c(-c2cc3[nH]c(=O)n([C@H]4CCNC(=O)C4)c(=O)c3s2)c1` [Example 17, (S)-6-(2-chloro-5-methoxyphenyl)-3-(2-oxopiperidin-4-yl)thieno[3,2-d]pyrimidine-2,4(1H,3H)-dione], the EC50 is 0.0846 µM.

Consider `COc1ccc(Cl)c(-c2cc3c(s2)c(=O)n([C@@H]2CCCNC(=O)C2)c(=O)n3CCC#N)c1` [Example 29, (R)-3-(6-(2-chloro-5-methoxyphenyl)-2,4-dioxo-3-(2-oxoazepan-4-yl)-3,4-dihydrothieno[3,2-d]pyrimidin-1(2H)-yl)propanenitrile], for which the half-maximal effective concentration (EC50) is below 0.00564 µM.

For the molecule `COc1cc(-c2cc3[nH]c(=O)n([C@H]4CCCNC(=O)C4)c(=O)c3s2)c(Cl)cc1F` [Example 31, (S)-6-(2-chloro-4-fluoro-5-methoxyphenyl)-3-(2-oxoazepan-4-yl)thieno[3,2-d]pyrimidine-2,4(1H,3H)-dione], the EC50 was determined as 0.0513 µM.

In the case of `COc1cc(-c2cc3[nH]c(=O)n([C@@H]4CC(=O)NC[C@@H](C)C4)c(=O)c3s2)c(Cl)cc1F` (single isomer, unassigned) [Example 53], the EC50 amounted to 0.034 µM.

For the molecule `Cc1cc(-c2cccc(Cl)c2-c2cc3[nH]c(=O)n(C4CCNC(=O)C4)c(=O)c3s2)cnn1` (stereo not drawn) [Example 10, 6-(2-chloro-6-(6-methylpyridazin-4-yl)phenyl)-3-(2-oxopiperidin-4-yl)thieno[3,2-d]pyrimidine-2,4(1H,3H)-dione], the EC50 worked out at 5.5 µM.

As for `O=C1C[C@H](n2c(=O)[nH]c3cc(-c4ccccc4Cl)sc3c2=O)CN1` [Example 2, 6-(2-chlorophenyl)-3-[(3S)-5-oxopyrrolidin-3-yl]-1H-thieno[3,2-d]pyrimidine-2,4-dione], the concentration for a half-maximal effect (EC50) was found to be 35.5 µM.

Regarding `Cn1cc(-c2cccc(Cl)c2-c2cc3[nH]c(=O)n(C4CCNC(=O)C4)c(=O)c3s2)c(C(F)(F)F)n1` (stereo not drawn) [Example 12, 6-(2-chloro-6-(1-methyl-3-(trifluoromethyl)-1H-pyrazol-4-yl)phenyl)-3-(2-oxopiperidin-4-yl)thieno[3,2-d]pyrimidine-2,4(1H,3H)-dione], the EC50 stood at 0.752 µM.

Consider `COc1cc(-c2cc3c(s2)c(=O)n([C@@H]2CCCNC(=O)C2)c(=O)n3CCC(=O)N(C)C)c(Cl)cc1F` [Example 40, (R)-3-(6-(2-chloro-4-fluoro-5-methoxyphenyl)-2,4-dioxo-3-(2-oxoazepan-4-yl)-3,4-dihydrothieno[3,2-d]pyrimidin-1(2H)-yl)-N,N-dimethylpropanamide], for which the 50% effective concentration (EC50) came out at 0.137 µM.

As to `O=C1CC(n2c(=O)[nH]c3cc(-c4ccccc4Cl)sc3c2=O)CCCN1` (stereo not drawn) [Example 8, 6-(2-chlorophenyl)-3-(2-oxoazepan-4-yl)thieno[3,2-d]pyrimidine-2,4(1H,3H)-dione], the EC50 was found to be 0.0619 µM.

In the case of `COc1ccc(C#N)c(-c2cc3[nH]c(=O)n(C4CCCNC(=O)C4)c(=O)c3s2)c1` (stereo not drawn) [Example 25, 2-(2,4-dioxo-3-(2-oxoazepan-4-yl)-1,2,3,4-tetrahydrothieno[3,2-d]pyrimidin-6-yl)-4-methoxybenzonitrile], the EC50 came out at 0.432 µM.

On to `COc1cc(-c2cc3[nH]c(=O)n([C@@H]4CCCNC(=O)C4)c(=O)c3s2)c(C#N)cc1F` [Example 46, (R)-2-(2,4-dioxo-3-(2-oxoazepan-4-yl)-1,2,3,4-tetrahydrothieno[3,2-d]pyrimidin-6-yl)-5-fluoro-4-methoxybenzonitrile], for which the EC50 stood at 0.771 µM.

For the origin of these results see patent US20250276979A1, “SARS-COV2 MAIN PROTEASE INHIBITORS” (Gilead Sciences, Inc., priority 2024, published 2025).
